Measured values from publication PMC8158687, “Xanthones Active against Multidrug Resistance and Virulence Mechanisms of Bacteria” (Antibiotics, 2021).

Tests used:
[1] = tested on: NIH/3T3 mouse fibroblast cells; assay: Cytotoxicity assay (MTT); type: cell-based
Experimental: (§1) In order to apply efflux pump inhibitors to treat patients, several issues should be addressed.
(§2) Mouse fibroblasts (NIH/3T3, ATCC CRL-1658TM) were cultivated in DMEM (Gibco 52100-039) and supplemented with 10% heat-inactivated fetal bovine serum (Biowest, VWR International Kft, Debrecen, Hungary), 2 mM of L-glutamine, 1 mM Na pyruvate, 100 U/L and 10 mg/L penicillin/streptomycin mixture (Sigma-Aldrich Chemie GmbH, Steinheim, Germany), respectively, and 0.1% nystatin (8.3 g/L in ethylene glycol). The adherent cells were detached using a combination of 0.25% Trypsin–Versene (EDTA) solution for 5 min at 37 °C. Before each cytotoxicity assay using this cell line, cells were seeded in untreated 96-well flat-bottom microtiter plates, following a 4-h incubation period in a humidified atmosphere (5% CO2, 95% air) at 37 °C [60].
(§3) The cytotoxicity of 4, 12, 16, 19, and 20 was assessed in NIH/3T3 cells. The compounds were added to the cells distributed into 96-well flat bottom microtiter plates at concentrations of […] and initially incubated for 24 h, after which a solution of MTT in PBS was added to each well and incubated for another 4 h. The concentrations used were the same as in the MIC assay. After this, 100 μL of SDS (10% in a 0.01 M HCl solution) were added to each well and incubated overnight at 37 °C. Doxorubicin was used as the positive control. Cell growth was determined in quadruplicate by measuring OD at λ = 540 nm (reference 630 nm) in a Multiscan EX ELISA reader (Thermo Labsystems, Cheshire, WA, USA). The percentage of inhibition of cell growth was determined according to the equation: (2) 100−(ODsample−ODmedium control/ODcell control−ODmedium control)×100

Cytotoxicity assay (MTT) = type: cell-based, mouse; settings: mouse, NIH/3T3 mouse fibroblast cells, 24 h, MTT, read-out: Cytotoxicity IC50 (µM) ± SD
Experimental: as §1, §2, §3

[2] = tested on: EZF + CV026 (Sphingomonas paucimobilis Ezf 10-17 + Chromobacterium violaceum CV026); assay: Quorum sensing inhibition assay (parallel inoculation, pigment production); type: cell-based; settings: read-out: Quorum Sensing Inhibition (mm) ± SD
Source text: (§4) The sensor strain Chromobacterium violaceum CV026 and the acyl-homoserine lactones (AHLs) producer strain Sphingomonas paucimobilis Ezf 10-17 (EZF) were inoculated as parallel lines, and the AHL producers, Chromobacterium violaceum wild type 85 (wt85) and Serratia marcescens AS-1 were inoculated as a single line.
(§5) For the QS tests, all the bacteria used were Gram-negative. The bacteria used were Chromobacterium violaceum wild type 85 (wt85), characterized by the AHL signal molecule-mediated production of the purple violacein pigment, capable of endogenous QS-signal molecule production (N-hexanoyl-L-HSL), C. violaceum CV026 (CV026), a Tn5 transposase-mutant, AHL-signal molecule indicator strain (produces purple violacein pigment in the presence of AHL), which is incapable of endogenous QS-signal molecule-production, but useful in the detection of external stimuli, Sphingomonas paucimobilis Ezf 10-17 (EZF), AHL-producing-strain (used with C. violaceum CV026), and Serratia marcescens AS-1, characterized by the AHL signal molecule-mediated production of the orange–red pigment prodigiosin (2-methyl-3-pentyl-6-methoxyprodigiosin), capable of endogenous QS-signal molecule production (N-hexanoyl-L-HSL), were applied.
(§6) The QS inhibitory effect of the compounds was examined on the EZF and the sensor CV026 strains, on the wt85 strain, and on S. marcescens, for 4, 5, 11, 12, 16, 19, and 20. The method used was the parallel inoculation method, where pair combinations of the used sensor strain CV026 and the N-acyl-homoserine lactone (AHL)-producing strain EZF were inoculated directly onto the LB*-A agar surface in parallel, at an approximate distance of 5 mm from each other. S. marcescens AS-1 and wt85 were inoculated as a single line. Filter paper disks (7 mm in diameter) were placed on the center of the inoculated line(s) and impregnated with 8 µL of a solution of 10 mM of the compounds. […] The agar plates were incubated at room temperature (20 °C) for 24–48 h. The QS inhibition was accessed visually, through the inhibition of pigment production. The discolored, but intact, bacterial colonies were measured with a ruler.

S. aureus 272123 [3] = assay: Inhibition of biofilm formation (crystal violet); type: cell-based, Staphylococcus aureus; settings: half the MIC, or 100 µM if MIC >100 µM, 48 h, 30 °C
Experimental: The biofilm inhibition, presented in percentages (%), was calculated based on the mean of absorbance units.
The bacterial strains used were the Gram-positive S. aureus ATCC 25923 and S. aureus 272123. The detection of the biofilm formation was possible with the use of the dye crystal violet (CV; 0.1% v/v). The initial inoculum was incubated in TSB overnight, and then diluted to an OD600 of 0.1. Then, the bacterial suspension was added to 96-well microtiter plates and the compounds were added at half the MIC. […] The final volume in each well was 200 µL. […] The plates were incubated at 30 °C for 48 h, with gentle stirring (100 rpm). After this incubation period, the TSB medium was discarded, and the plates were washed with tap water to remove unattached cells. Afterwards, 200 µL of a 0.1% v/v CV solution were added to the wells and incubated for 15 min at room temperature. Then, the CV solution was removed from the wells, and the plates were washed again with tap water, and 200 µL of a 70% ethanolic solution were added to the wells. The biofilm formation was determined by measuring the OD600 using a Multiscan EX ELISA plate reader (Thermo Labsystems, Cheshire, WA, USA). The anti-biofilm effect of the compounds was expressed as the percentage (%) of decrease in biofilm formation.

[4] = tested on: SE03 (acrA gene-inactivated Salmonella enterica serovar Typhimurium SL1344); assay: Efflux pump inhibition assay (real-time ethidium bromide accumulation); type: cell-based; settings: compound 50 µM, EB 1 µg/mL, minute 60
Experimental: (§7) Salmonella enterica serovar Typhimurium SE03, was used as a Gram-negative bacterium. This strain has a deletion of the acrA gene, which was predicted with the least affinity for the compounds. The aim of these studies was to perform a first screening of these compounds and their ability to modulate the efflux of EB. […] The relative fluorescence index (RFI) was calculated based on the means of relative fluorescence units, depicted in Table 2.
(§8) Compounds 1–20 were evaluated for their ability to inhibit efflux pumps in SE03 and S. aureus 272123 strains, through the real-time fluorimetry, monitoring the intracellular accumulation of EB, an efflux pump substrate. This was determined by the automated method using a CLARIOstar Plus plate reader (BMG Labtech, Ortenberg, Germany). Reserpine and CCCP were applied at 25 µM as positive controls, and the solvent DMSO was applied at 1% v/v. The bacterial strains were incubated in an appropriate culture media (TSB—S. aureus 272123; LB-B—SE03) at 37 °C until they reached an optical density (OD) between 0.4 and 0.6 at λ = 600 nm. The culture was centrifuged at 13,000× g for 3 min, and the pellet washed and resuspended with PBS. The suspension was centrifuged again in the same conditions and resuspended in PBS. The compounds were applied at 50 µM in a solution of a non-toxic concentration of EB (1 µg/mL) in PBS. Then, 50 µL of this solution were transferred into a 96-well black microtiter plate (Greiner Bio-One Hungary Kft, Mosonmagyaróvár, Fertősor, Hungary), and 50 µL of bacterial suspension (OD600 0.4–0.6) were added to each well. The plates were placed into the CLARIOstar plate reader, and the fluorescence was monitored at excitation and emission wavelengths of 530 nm and 600 nm every minute for one hour on a real-time basis. From the real-time data, the activity of the compounds, namely the RFI of the last time point (minute 60) of the EB accumulation assay, was calculated according to the following formula:(1) RFI=RFtreated−RFuntreated/RFuntreated where RFtreated is the relative fluorescence (RF) at the last time point of EB accumulation curve in the presence of the compound, and RFuntreated is the RF at the last time point of the EB accumulation curve of the untreated control, having only the solvent (DMSO) control. The accumulation curves were designed using Microsoft Excel®.

Serratia marcescens AS-1 = assay: Quorum sensing inhibition assay (disk, pigment production); type: cell-based; settings: AS1, read-out: Quorum Sensing Inhibition (mm) ± SD
Source text: as §4, §5, §6

[5] = tested on: Chromobacterium violaceum wild type 85 (wt85); assay: as above; type: cell-based; settings: read-out: Quorum Sensing Inhibition (mm) ± SD
Source text: as §4, §5, §6

S. aureus ATCC 29213 = assay: Inhibition of biofilm formation (crystal violet); type: cell-based, Staphylococcus aureus; settings: half the MIC, or 100 µM if MIC >100 µM, 48 h, 30 °C
S. aureus 272123 [6] = assay: Efflux pump inhibition assay (real-time ethidium bromide accumulation); type: cell-based, Staphylococcus aureus; settings: compound 50 µM, EB 1 µg/mL, minute 60
Experimental: Compounds 1–20 were assessed for their capability of modulating ethidium bromide (EB) accumulation on two resistant strains. […] However, norA is a core gene of the S. aureus as a species, which means that the NorA pump occurs in all S. aureus strains.
as §7, §8

[7] = tested on: extended-spectrum β-lactamase producing strain; set-up: method as in PMID 32455828; settings: previous results; ref [14]; cited from earlier work

Compound	Cytotoxicity (in words) [1]	IC50 at 24 h (Cytotoxicity assay (MTT)) [µM]	zone of inhibition at 10000 µM [2] [mm]	Inhibition of Biofilm Formation (%) ± SD (S. aureus 272123 [3])	RFI ± SD (relative fluorescence index) [4]	zone of inhibition at 10000 µM (Serratia marcescens AS-1) [mm]	zone of inhibition at 10000 µM [5] [mm]	Inhibition of Biofilm Formation (%) ± SD (S. aureus ATCC 29213)	RFI ± SD (relative fluorescence index) (S. aureus 272123 [6])	activity against extended-spectrum β-lactamase producing strain (in words) [7]
COc1ccc2c(=O)c3c(C=O)cc(OC)c(OC)c3oc2c1 [Compound 16]	moderate cytotoxicity	26.9 ± 5.87	42 ± 0.8	58.98 ± 12.00 ^4%	0.13 ± 0.15 ^10	0	0	0 ^2%	5.49 ± 8.04 ^5	
COc1cc(CBr)c2c(=O)c3ccccc3oc2c1OC [Compound 12]	moderate cytotoxicity	54.6 ± 5.3	30 ± 0.5	6.27 ± 1.41 ^3%	1.75 ± 1.57 ^9	0	0	0 ^1%	0.11 ± 0.30 ^4	
COc1cccc2oc3ccccc3c(=O)c12 [Compound 11]			0	39.95 ± 7.66 ^3%		0	0	0 ^1%		
COc1cc(CNCc2ccc(F)cc2)c2c(=O)c3ccccc3oc2c1OC [Compound 19]		> 100	0	65.03 ± 9.86 ^4%	2.86 ± 0.14 ^8	0	0		0.02 ± 0.02 ^3	
CC(CN1c2ccccc2Sc2ccccc21)N(C)C (stereo not drawn) [PMZ, promethazine, reference compound]			40 ± 0.1			18 ± 0.8	41 ± 0.5			
Cc1c(O)cc2oc3ccccc3c(=O)c2c1O [Compound 5]			0	61.62 ± 16.51 ^3%	1.74 ± 0.22 ^7	0	0	0 ^1%	0.16 ± 0.08 ^2	
COc1cc(CN[C@H](C)c2ccc(Cl)cc2)c2c(=O)c3ccccc3oc2c1OC [Compound 20]		35.1 ± 4.86	0	77.17 ± 4.45 ^4%	2.09 ± 0.05 ^11	0	0		1.08 ± 0.82 ^4	
O=c1c2cc(O)ccc2oc2cccc(O)c12 [Compound 4]	no cytotoxicity was observed	> 100	0		2.90 ± 0.71 ^7	0	0	0 ^1%	0.13 ± 0.08 ^2	not active
COc1cccc2c1C(=O)c1c(O)c3c(c(O)c1C2=O)C[C@@](O)(C(=O)CO)C[C@@H]3O[C@H]1C[C@H](N)[C@H](O)[C@H](C)O1 [Doxorubicin, reference compound]		12.1 ± 0.81								
